Laboratory results: ChEMBL document CHEMBL3508693 (2016)

Legend:
[1] = Apparent terminal half-life (0-168h) of total radioactivity following single intravenous administration of [14C] aliskiren hemifumarate at 1 mg.Kg-1 level in marmoset; type: ADME, organism-based, Callithrix jacchus, Plasma; conditions: in vivo
[2] = Excretion of radioactivity (0-96h) in faeces following single oral dose of 100 mg.Kg-1 [14C] aliskiren hemifumarate in rat; type: ADME, organism-based, Albino HAN:WIST, Feces; conditions: in vivo
Cytochrome P450 2D6 = Cytochrome P450 2D6 (Homo sapiens, UniProt P10635); assay: Involvement of CYP2D6 in the metabolism of [14C] aliskiren hemifumarate based on studies with microsomes from baculovirus-infected insect cells expressing recombinant human CYP450s and studies with pooled human liver microsomes from 22 donors; type: ADME, Microsome
Sequence of Cytochrome P450 2D6 (P10635 whole entry): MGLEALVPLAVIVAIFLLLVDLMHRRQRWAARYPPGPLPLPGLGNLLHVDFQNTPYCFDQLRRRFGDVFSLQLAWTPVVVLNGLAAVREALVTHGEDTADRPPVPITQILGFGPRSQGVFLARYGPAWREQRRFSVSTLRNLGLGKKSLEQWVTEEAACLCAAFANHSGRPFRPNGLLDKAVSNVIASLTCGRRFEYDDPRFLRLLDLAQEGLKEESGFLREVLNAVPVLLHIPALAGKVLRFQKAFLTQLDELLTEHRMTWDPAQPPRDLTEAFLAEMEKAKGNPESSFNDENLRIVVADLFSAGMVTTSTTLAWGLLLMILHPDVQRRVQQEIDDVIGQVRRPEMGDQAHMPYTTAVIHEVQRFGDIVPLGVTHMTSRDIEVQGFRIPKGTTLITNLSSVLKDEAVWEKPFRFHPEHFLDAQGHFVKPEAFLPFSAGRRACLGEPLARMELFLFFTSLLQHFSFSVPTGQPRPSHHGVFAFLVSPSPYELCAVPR

[3] = AUC (0-96 or 0-168h) of total radioactivity following single oral administration of [14C] aliskiren hemifumarate at 3 mg.Kg-1 level in marmoset; type: ADME, organism-based, Callithrix jacchus, Plasma; conditions: in vivo
[4] = Excretion of radioactivity (0-24h) in urine following single intravenous dose of 10 mg.Kg-1 [14C] aliskiren hemifumarate in mouse; type: ADME, organism-based, TgRasH2; conditions: in vivo
[5] = Total excretion of radioactivity following intravenous administration of [14C] aliskiren hemifumarate at 1 mg.Kg-1 level in marmoset; type: ADME, organism-based, Callithrix jacchus, Urine/Feces; conditions: in vivo
[6] = Excretion of radioactivity (72-96h) in faeces following single oral dose of 100 mg.Kg-1 [14C] aliskiren hemifumarate in rat; type: ADME, organism-based, Albino HAN:WIST, Feces; conditions: in vivo
[7] = Cmax normalised (0-168h) of total radioactivity following single oral administration of [14C] aliskiren hemifumarate at 3 mg.Kg-1 level in marmoset; type: ADME, organism-based, Callithrix jacchus, Plasma; conditions: in vivo
[8] = % of radioactivity (48h) recovered in cage wash of receiver rat following duodenal infusion of radioactivity through bile from donor rat treated with single intravenous administration of 10 mg.Kg-1 [14C] aliskiren hemifumarate; type: ADME, organism-based, HAN:WIST(SPF); conditions: in vivo
[9] = Concentration of radioactivity in the kidney medulla following repeated oral administration of [14C] aliskiren hemifumarate at 100 mg.Kg-1 level studied at 24h after 3rd dose in rat; type: ADME, organism-based, Albino HAN:WIST, Renal medulla; conditions: in vivo
[10] = AUC (0-96h) of total radioactivity following oral administration of [14C] aliskiren hemifumarate at 100 mg.Kg-1 level in rat; type: ADME, organism-based, Albino HAN:WIST, Plasma; conditions: in vivo
[11] = Plasma clearance (0-96h) of total radioactivity following oral administration of [14C] aliskiren hemifumarate at 100 mg.Kg-1 level in rat; type: ADME, organism-based, Albino HAN:WIST; conditions: in vivo, iv
[12] = % SPP100 (0-168h) recovered in urine following single intravenous dose of [14C] aliskiren hemifumarate at 1 mg.Kg-1 level in marmoset; type: ADME, organism-based, Callithrix jacchus; conditions: in vivo
CYP1A2 = molecular target: T1, CYP1A2 (Homo sapiens, UniProt P05177); assay: Inhibitory activity of 200 uM SPP100 on 578 Pmoles of cDNA-derived CYP1A2 enzyme in microsome prepared from human lymphoblastoid cell line; type: ADME, microsomes; set-up: conc 200 uM, interact cpd conc 50 uM; conditions: probe phenacetin
T1 sequence (P05177 whole entry): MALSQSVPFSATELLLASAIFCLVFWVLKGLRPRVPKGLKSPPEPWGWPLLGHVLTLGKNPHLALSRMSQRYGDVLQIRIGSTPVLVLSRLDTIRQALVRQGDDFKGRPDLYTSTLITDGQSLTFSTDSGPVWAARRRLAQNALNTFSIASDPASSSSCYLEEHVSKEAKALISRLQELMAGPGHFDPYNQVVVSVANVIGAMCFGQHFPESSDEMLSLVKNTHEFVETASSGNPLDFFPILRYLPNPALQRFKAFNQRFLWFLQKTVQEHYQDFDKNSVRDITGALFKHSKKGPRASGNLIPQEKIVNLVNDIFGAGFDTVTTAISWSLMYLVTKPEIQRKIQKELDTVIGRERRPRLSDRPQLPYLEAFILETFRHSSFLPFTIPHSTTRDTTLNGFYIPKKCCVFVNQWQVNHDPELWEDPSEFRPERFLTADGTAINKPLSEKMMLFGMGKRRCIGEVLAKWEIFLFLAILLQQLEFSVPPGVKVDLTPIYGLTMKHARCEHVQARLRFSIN

[13] = AUCspec of aliskiren hemifumarate following 2 week oral dosing of aliskiren hemifumarate at 100 mg.Kg-1 level studied on day 14 in male Callithrix jacchus; type: ADME, organism-based, Plasma; conditions: marmoset, in vivo, 336 h
[14] = Cmaxspec of aliskiren hemifumarate following 2 week oral dosing of aliskiren hemifumarate at 100 mg.Kg-1 level studied on day 14 in female Callithrix jacchus; type: ADME, organism-based, Plasma; conditions: marmoset, in vivo, 336 h
[15] = AUC of aliskiren hemifumarate following 8 day once-daily dosing of SPP100B oral solution at 80 mg level studied on day 8 in men; type: ADME, organism-based; conditions: male, human, plasma
[16] = t1/2 of aliskiren hemifumarate following 2 week oral dosing of aliskiren hemifumarate at 50 mg.Kg-1 level studied on day 1 in male Callithrix jacchus; type: ADME, organism-based; conditions: marmoset, plasma
[17] = AUC(0-24h) of aliskiren hemifumarate following 2 week oral dosing of aliskiren hemifumarate at 50 mg.Kg-1 level studied on day 14 in male Callithrix jacchus; type: ADME, organism-based; conditions: marmoset, plasma
[18] = AUCspec of aliskiren hemifumarate following 2 week oral dosing of aliskiren hemifumarate at 50 mg.Kg-1 level studied on day 1 in male Callithrix jacchus; type: ADME, organism-based, Plasma; conditions: marmoset, in vivo, 336 h
[19] = AUC (0-24h)/dose of aliskiren hemifumarate following 4 week oral dietary dosing of aliskiren hemifumarate at 1000 mg.Kg-1 level in male mouse; type: ADME, organism-based, CB6F1-TGrasH2, Plasma; conditions: in vivo
[20] = AUCspec of aliskiren hemifumarate following 2 week oral dosing of aliskiren hemifumarate at 10 mg.Kg-1 level studied on day 14 in female Callithrix jacchus; type: ADME, organism-based, Plasma; conditions: marmoset, in vivo, 336 h
[21] = Tmax (0-168h) of unlabeled aliskiren hemifumarate following single intravenous administration of aliskiren hemifumarate at 1 mg.Kg-1 level in marmoset; type: ADME, organism-based, Callithrix jacchus; conditions: plasma
hERG (KCNH2) [22] = molecular target: T2, hERG (KCNH2) (Homo sapiens, UniProt Q12809); assay: Effects of 10 uM aliskiren hemifumarate on current through cloned hERG channel expressed in human embryonic kidney cell; type: cell-based; set-up: conc 10 uM, dose level Low; conditions: HEK293 cells that express cloned hERG channel, read-out: Inhibitory activity
T2 sequence (Q12809 whole entry): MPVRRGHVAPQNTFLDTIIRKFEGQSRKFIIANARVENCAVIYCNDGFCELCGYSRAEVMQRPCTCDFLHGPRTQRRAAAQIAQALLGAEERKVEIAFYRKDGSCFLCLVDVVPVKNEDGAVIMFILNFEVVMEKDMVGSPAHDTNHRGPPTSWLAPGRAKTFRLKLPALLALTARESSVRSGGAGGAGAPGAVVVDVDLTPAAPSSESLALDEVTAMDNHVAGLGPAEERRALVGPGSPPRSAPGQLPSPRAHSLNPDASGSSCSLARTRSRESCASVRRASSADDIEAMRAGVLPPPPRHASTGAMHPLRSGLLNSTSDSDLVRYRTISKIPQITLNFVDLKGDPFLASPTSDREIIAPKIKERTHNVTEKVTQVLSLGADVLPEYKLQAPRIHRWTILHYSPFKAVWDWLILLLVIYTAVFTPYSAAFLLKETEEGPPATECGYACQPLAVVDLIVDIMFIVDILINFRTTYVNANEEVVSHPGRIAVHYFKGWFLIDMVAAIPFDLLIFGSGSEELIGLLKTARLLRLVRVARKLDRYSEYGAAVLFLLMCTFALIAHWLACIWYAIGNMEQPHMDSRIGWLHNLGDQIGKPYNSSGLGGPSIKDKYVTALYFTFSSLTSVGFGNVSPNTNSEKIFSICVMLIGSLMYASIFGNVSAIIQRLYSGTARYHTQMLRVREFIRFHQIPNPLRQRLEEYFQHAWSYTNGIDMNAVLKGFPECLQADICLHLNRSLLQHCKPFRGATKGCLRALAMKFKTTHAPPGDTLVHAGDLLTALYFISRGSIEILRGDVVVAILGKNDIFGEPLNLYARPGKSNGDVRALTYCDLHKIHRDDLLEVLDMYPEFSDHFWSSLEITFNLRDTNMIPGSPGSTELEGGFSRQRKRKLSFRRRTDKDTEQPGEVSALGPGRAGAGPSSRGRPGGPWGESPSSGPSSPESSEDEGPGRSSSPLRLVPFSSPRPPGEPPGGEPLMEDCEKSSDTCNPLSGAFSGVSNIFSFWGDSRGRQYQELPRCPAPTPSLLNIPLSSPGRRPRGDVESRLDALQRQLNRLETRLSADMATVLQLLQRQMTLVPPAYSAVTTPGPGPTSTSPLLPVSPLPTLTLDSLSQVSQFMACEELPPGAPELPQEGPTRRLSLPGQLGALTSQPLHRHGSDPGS

hERG (KCNH2) [23] = molecular target: T2, hERG (KCNH2); assay: Effects of 100 uM aliskiren hemifumarate on current through cloned hERG channel expressed in human embryonic kidney cell; type: cell-based; set-up: conc 100 uM, dose level Intermediate; conditions: HEK293 cells that express cloned hERG channel, read-out: Inhibitory activity
[24] = Effect of 2 week oral dosing of aliskiren hemifumarate at 50 mg.Kg-1 level on blood urea nitrogen level in female Callithrix jacchus; type: toxicity, organism-based, Plasma; conditions: marmoset, 336 h
[25] = Cmaxspec of aliskiren hemifumarate following 2 week oral dosing of aliskiren hemifumarate at 50 mg.Kg-1 level studied on day 1 in male Callithrix jacchus; type: ADME, organism-based, Plasma; conditions: marmoset, in vivo, 336 h
[26] = Cmax of aliskiren hemifumarate following single dosing of SPP100B oral solution at 640 mg level studied on day 1 in men; type: ADME, organism-based; conditions: male, human, plasma
[27] = Cmax/dose of aliskiren hemifumarate following 4 week oral dietary dosing of aliskiren hemifumarate at 500 mg.Kg-1 level in female mouse; type: ADME, organism-based, CB6F1-TGrasH2; conditions: in vivo, 672 h
[28] = t1/2 of aliskiren hemifumarate following 2 week oral dosing of aliskiren hemifumarate at 50 mg.Kg-1 level studied on day 14 in female Callithrix jacchus; type: ADME, organism-based; conditions: marmoset, plasma
[29] = Cmaxspec of aliskiren hemifumarate following 2 week oral dosing of aliskiren hemifumarate at 100 mg.Kg-1 level studied on day 1 in male Callithrix jacchus; type: ADME, organism-based, Plasma; conditions: marmoset, in vivo, 336 h
[30] = AUC(0-24h) of aliskiren hemifumarate following 2 week oral dosing of aliskiren hemifumarate at 100 mg.Kg-1 level studied on day 1 in male Callithrix jacchus; type: ADME, organism-based; conditions: marmoset, plasma
[31] = Tmax of aliskiren hemifumarate following 2 week oral dosing of aliskiren hemifumarate at 100 mg.Kg-1 level studied on day 1 in female Callithrix jacchus; type: ADME, organism-based; conditions: marmoset, plasma

**Q.** What does the source list for `COCCCOc1cc(C[C@@H](C[C@H](N)[C@@H](O)C[C@H](C(=O)NCC([14CH3])([14CH3])C(N)=O)C(C)C)C(C)C)ccc1OC.O=C(O)/C=C/C(=O)O`?
**A.** t1/2 [1]: 39.5 h; Radiolabel recovery [2]: 4.2%; Activity (Cytochrome P450 2D6): OUTCOME = Observed, VALUE = CYP2D6 contributed to a minor extent on metabolism of aliskiren; AUC [3]: 4.84 µM·h; Radiolabel recovery [4]: 69.49%; Radiolabel recovery [5]: 83.1%; Radiolabel recovery [6]: 0.17%; Cmax normalised [7]: 0.12 (umol/L)/(mg/kg); Radiolabel recovery [8]: 4%; Radiolabel recovery [9]: OUTCOME = Detected; AUC [10]: 5.38 µM·h; AUC ([10]; iv, 10 mg/kg): 8.08 µM·h; Plasma clearance [11]: 1.28 L·h/kg

**Q.** Which Compound recovery [12] does the source give for `COCCCOc1cc(C[C@@H](C[C@H](N)[C@@H](O)C[C@H](C(=O)NCC(C)(C)C(N)=O)C(C)C)C(C)C)ccc1OC` here?
**A.** The Compound recovery was 3%.

**Q.** What about the inhibition at 200 µM (CYP1A2) of the same compound?
**A.** The inhibition at 200 µM was -12.4%.

**Q.** For `COCCCOc1cc(C[C@@H](C[C@H](N)[C@@H](O)C[C@H](C(=O)NCC(C)(C)C(N)=O)C(C)C)C(C)C)ccc1OC.COCCCOc1cc(C[C@@H](C[C@H](N)[C@@H](O)C[C@H](C(=O)NCC(C)(C)C(N)=O)C(C)C)C(C)C)ccc1OC.O=C(O)/C=C/C(=O)O` [ALISKIREN FUMARATE], which AUC normalised [13] is on record?
**A.** The AUC normalised was 1.09 ((ug.h.ml-1)/(mg/kg).

**Q.** And the Cmax normalised [14]?
**A.** Its Cmax normalised is 0.106 (ug/ml)/(mg/kg).

**Q.** What about the AUC at 192 h [15] of the same compound?
**A.** The AUC at 192 h was 137 ng·h/mL.

**Q.** And the half-life [16]?
**A.** Its half-life is 7.37 h.

**Q.** What about the AUC at 24 h [17] of the same compound?
**A.** Its AUC at 24 h is 107000 ng·h/mL.

**Q.** And the AUC normalised [18]?
**A.** The AUC normalised was 1.16 ((ug.h.ml-1)/(mg/kg).

**Q.** What about the AUC normalised [19] of the same compound?
**A.** The AUC normalised was 4.82 ((ng/mL).hours)/(mg/kg/day).

**Q.** What about the AUC normalised [20] of the same compound?
**A.** Its AUC normalised is 2.9 ((ug.h.ml-1)/(mg/kg).

**Q.** And the Tmax [21]?
**A.** Its Tmax is 4.98 min.

**Q.** And the inhibition at 10 µM (hERG (KCNH2) [22])?
**A.** The inhibition at 10 µM was 1.4%.

**Q.** What about the inhibition at 100 µM (hERG (KCNH2) [23]) of the same compound?
**A.** The inhibition at 100 µM was 6%.

**Q.** And the BUN_CHANGE_BY [24]?
**A.** The BUN_CHANGE_BY was 274%.

**Q.** And the Cmax normalised [25]?
**A.** Its Cmax normalised is 0.126 (ug/ml)/(mg/kg).

**Q.** What about the Cmax [26] of the same compound?
**A.** The Cmax was 146 ng/mL.

**Q.** What about the Cmax normalised [27] of the same compound?
**A.** Its Cmax normalised is 0.128 (ng/mL)/(mg/kg/day).

**Q.** What about the half-life [28] of the same compound?
**A.** The half-life was 8.19 h.

**Q.** What about the Cmax normalised [29] of the same compound?
**A.** The Cmax normalised was 0.072 (ug/ml)/(mg/kg).

**Q.** What about the AUC(0-t) at 24 h [30] of the same compound?
**A.** Its AUC(0-t) at 24 h is 76400 ng·h/mL.

**Q.** What about the Tmax [31] of the same compound?
**A.** The Tmax was 1 h.
